One block for each molecule: values may come before it.
How the values were obtained:
[1] = target: Free fatty acid receptor 1 (Homo sapiens, UniProt O14842); assay: Agonist activity at human GPR40 expressed in HEK293 cells by Fluo4-AM dye based intracellular calcium flux assay; assay type: functional, cell-based
[2] = Metabolic stability in rat liver microsomes assessed as half life; assay type: ADME, Microsome
[3] = Metabolic stability in rat liver microsomes assessed as intrinsic clearance; assay type: ADME, Microsome; details: read-out: CLH
[4] = Metabolic stability in human liver microsomes assessed as half life; assay type: ADME, Microsome
[5] = Metabolic stability in human liver microsomes assessed as intrinsic clearance; assay type: ADME, Microsome
[6] = Cmax in Sprague-Dawley rat at 1 mg/kg, iv by LC-MS analysis; assay type: ADME, organism-based; set-up: dose 1 mg/kg, route iv; details: in vivo
[7] = AUC (0 to t) in Sprague-Dawley rat at 1 mg/kg, iv by LC-MS analysis; assay type: ADME, organism-based; set-up: dose 1 mg/kg, route iv; details: in vivo
[8] = Half life in Sprague-Dawley rat at 1 mg/kg, iv by LC-MS analysis; assay type: ADME, organism-based; details: in vivo
[9] = MRTlast in Sprague-Dawley rat at 1 mg/kg, iv by LC-MS analysis; assay type: ADME, organism-based; details: in vivo
[10] = Oral bioavailability in Sprague-Dawley rat […] by LC-MS analysis; assay type: ADME, organism-based; details: in vivo
[11] = Cmax in Sprague-Dawley rat at 10 mg/kg, po by LC-MS analysis; assay type: ADME, organism-based; set-up: dose 10 mg/kg, route po; details: in vivo
[12] = AUC (0 to t) in Sprague-Dawley rat at 10 mg/kg, po by LC-MS analysis; assay type: ADME, organism-based; set-up: dose 10 mg/kg, route po; details: in vivo
[13] = Half life in Sprague-Dawley rat at 10 mg/kg, po by LC-MS analysis; assay type: ADME, organism-based; details: in vivo
[14] = MRTlast in Sprague-Dawley rat at 10 mg/kg, po by LC-MS analysis; assay type: ADME, organism-based; details: in vivo
[15] = Tmax in Sprague-Dawley rat at 10 mg/kg, po by LC-MS analysis; assay type: ADME, organism-based; details: in vivo
[16] = system: Hepatocyte; assay: Cytotoxicity against human primary hepatocytes assessed as cell viability at 1 to 100 uM incubated for 24 hrs by WST-1 assay; assay type: toxicity, cell-based; details: dose 1-100 µM
[17] = system: Hepatocyte; assay: Disruption of plasma membrane integrity in human primary hepatocytes assessed as LDH release in cytosol upto 100 uM incubated for 24 hrs by absorbance based assay; assay type: toxicity, cell-based
[18] = system: Hepatocyte; assay: Disruption of plasma membrane integrity in rat primary hepatocytes assessed as LDH release in cytosol at 100 uM incubated for 24 hrs by absorbance based assay; assay type: toxicity, cell-based
[19] = target: GPR40-Galpha16 (Homo sapiens, UniProt O14842+P30679); assay: Agonist activity at human GPR40/Galpha-16 expressed in HEK293 cells by Fluo4-AM dye based intracellular calcium flux assay; assay type: cell-based
[20] = Inhibition of bile acid efflux in Sprague-Dawley rat hepatocytes assessed as decrease in biliary excretion index incubated for 15 mins followed by compound washout for 15 mins and subsequent addition of compounds with d8-TCA measured after 15 mins by LC-MS/MS analysis; assay type: toxicity, cell-based, Hepatocyte; details: 0.5 h, at 5 to 25 µM, dose 5-25 µM, time 30 min

Free fatty acid receptor 1, sequence (O14842 whole entry): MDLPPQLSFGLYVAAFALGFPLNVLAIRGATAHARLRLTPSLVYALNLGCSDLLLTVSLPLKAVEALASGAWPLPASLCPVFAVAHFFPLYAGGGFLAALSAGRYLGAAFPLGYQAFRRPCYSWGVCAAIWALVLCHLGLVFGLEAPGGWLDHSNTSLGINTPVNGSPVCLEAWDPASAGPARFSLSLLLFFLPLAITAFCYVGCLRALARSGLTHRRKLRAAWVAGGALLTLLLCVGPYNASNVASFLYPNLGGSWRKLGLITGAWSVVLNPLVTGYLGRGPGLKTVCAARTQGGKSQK
GPR40-Galpha16, sequence (O14842 whole entry): as above
GPR40-Galpha16, sequence (P30679 whole entry): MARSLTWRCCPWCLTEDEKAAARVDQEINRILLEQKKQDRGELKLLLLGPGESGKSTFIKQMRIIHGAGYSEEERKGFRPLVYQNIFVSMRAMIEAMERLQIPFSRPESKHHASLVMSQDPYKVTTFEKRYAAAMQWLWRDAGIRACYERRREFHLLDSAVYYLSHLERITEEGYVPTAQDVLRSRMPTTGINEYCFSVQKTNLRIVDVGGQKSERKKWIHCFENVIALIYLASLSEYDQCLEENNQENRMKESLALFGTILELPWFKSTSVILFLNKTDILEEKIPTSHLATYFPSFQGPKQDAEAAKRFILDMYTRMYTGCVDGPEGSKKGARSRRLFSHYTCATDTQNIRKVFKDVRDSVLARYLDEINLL

Structure (SMILES): Cc1cc(OCCCN2CCOCC2)cc(C)c1-c1cccc(COc2ccc([S+]([O-])CC(=O)O)cc2)c1 (racemic)
EC50 [1]: 0.0667 µM

Structure (SMILES): Cc1cc(OCC2(C)COC2)cc(C)c1-c1cccc(COc2ccc([S+]([O-])CC(=O)O)cc2)c1 (racemic)
EC50 [1]: 0.0628 µM

Structure (SMILES): Cc1cnccc1-c1cccc(COc2ccc([S+]([O-])CC(=O)O)cc2)c1 (racemic)
EC50 [1]: 2 µM

Structure (SMILES): Cc1cccc(C)c1-c1ccc(COc2ccc(S(=O)(=O)CC(=O)O)cc2)cc1
EC50 [1]: 0.716 µM

Structure (SMILES): Cc1cncc(C)c1-c1cccc(COc2ccc([S+]([O-])CC(=O)O)cc2)c1 (racemic)
EC50 [1]: 3.1 µM

Structure (SMILES): O=C(O)C[S+]([O-])c1ccc(OCc2cccc(-c3ccncc3Cl)c2)cc1 (racemic)
EC50 [1]: 1 µM

Structure (SMILES): CC#C[C@H](CC(=O)O)c1ccc(OCc2ccc(-c3cccc(OC)c3)cc2)cc1
EC50 [19]: 0.0933 µM

The next lines start with results.

EC50 [1]: 0.454 µM
Structure (SMILES): Cc1cccc(C)c1-c1ccc(COc2ccc([S+]([O-])CC(=O)O)cc2)cc1 (racemic)

half-life [2]: 3.82 h
microsomal CLint [3]: 6.3 µL/min/mg
t1/2 [4]: 6.3 min
CLH [5]: 8.8 µL/min/mg
Cmax [6]: 858 ng/mL
AUC(0-t) [7]: 871 ng·h/mL
half-life [8]: 1.9 h
MRT last [9]: 1.7 h
bioavailability [10]: 87.5%
Cmax [11]: 1230 ng/mL
AUC(0-t) [12]: 7620 ng·h/mL
half-life [13]: 3.2 h
MRT last [14]: 4.5 h
Tmax [15]: 2 h
Structure (SMILES): Cc1cccc(C)c1-c1cccc(COc2ccc([S@@+]([O-])CC(=O)O)cc2)c1
Activity [16]: Non-Toxic
Activity [17]: Non-Toxic
Activity [18]: Toxic

EC50 [1]: 6.04 µM
EC50 [19]: 10.1 µM
Structure (SMILES): CCCCC/C=C\C/C=C\CCCCCCCC(=O)O [LINOLEIC ACID]

EC50 [1]: 5.38 µM
Structure (SMILES): Cc1noc(C)c1-c1cccc(COc2ccc([S+]([O-])CC(=O)O)cc2)c1 (racemic)

EC50 [1]: 2.9 µM
Structure (SMILES): COc1ccc(F)c(-c2cccc(COc3ccc(S(=O)(=O)CC(=O)O)cc3)c2)c1

EC50 [1]: 0.252 µM
Structure (SMILES): Cc1cccc(C)c1-c1cccc(COc2ccc(S(=O)(=O)CC(=O)O)cc2)c1
inhibition (INH) [20]: Dose-Dependent Effect

EC50 [1]: 4.88 µM
Structure (SMILES): Cc1ccccc1C#Cc1ccc(S(=O)(=O)CC(=O)O)cc1

— ChEMBL document CHEMBL5346928, “Discovery of orally effective and safe GPR40 agonists by incorporating a chiral, rigid and polar sulfoxide into β-position to the carboxylic acid” (Eur J Med Chem, 2023)
